Laboratory results taken from patent US20180186796A1, “COMPOUNDS AND USES THEREOF” (LEAD DISCOVERY SIENA S.R.L., priority 2014, published 2018).
Read-outs that look alike come from different tables or passages of the source.

How the values were obtained:
[1] = target: T1, Recombinant human Src (Homo sapiens, UniProt P12931); assay: Enzymatic assay on isolated Src; assay type: biochemical
T1 construct: purchased Upstate (Lake Placid, N.Y.)
From the text: Recombinant human Src was purchased from Upstate (Lake Placid, N.Y.).

[2] = tested on: U87 cells; assay: U87 xenograft; assay type: in vivo, mice
Protocol: Male CD1 nude mice (Charles River, Milan, Italy) were maintained under the guidelines established by University of L'Aquila, Medical School and Science and Technology School Board Regulations, complying with the Italian government regulations for the use of laboratory animals. Before any invasive manipulation, mice were anesthetized with a mixture of ketamine (25 mg/ml)/xylazine (5 mg/ml). Tumor grafts were obtained by injecting s.c. 1×10^6 U87 cells in 100 μL of 12 mg/mL Matrigel (Becton Dickinson, Franklin Lakes, N.J., USA). Mice were divided in four groups: treated with vehicle, treated with radiotherapy, treated with Si306 and treated with Si306 in combination with radiotherapy. […] At the endpoint, tumors were recovered and weighted. The tumor xenograft was irradiated once with 4Gy dose at first sign of palpable tumor mass.
Antibodies were purchased from Cell Signaling (Cell Signaling Technology, Inc.).

[3] = Microsomal stability assay
[4] = tested on: U87 cells; assay: Low density growth assay; assay type: cell-based, human; conditions: 4Gy plus 1 μM or 10 μM Si306, 15 days
Protocol: U87 cells capacity for growth at clonal density, was evaluated by plating cells at density of 10 cells/cm^2 in 10% fetal bovine supplemented DMEM. After 2 weeks of culture, adherent cells were fixed with cold methanol, washed with PBS/BSA and air-dried. Adherent cells were stained with 0.5% crystal violet for 15 minutes at room temperature. The stained colonies were photomicrographed and analyzed by number and size with the public domain software ImageJ (by Wayne Rasband, http://rsb.info.nih.gov/ij/). Mean and SD values of at least three different experiments are shown.

T1 sequence (P12931 whole entry): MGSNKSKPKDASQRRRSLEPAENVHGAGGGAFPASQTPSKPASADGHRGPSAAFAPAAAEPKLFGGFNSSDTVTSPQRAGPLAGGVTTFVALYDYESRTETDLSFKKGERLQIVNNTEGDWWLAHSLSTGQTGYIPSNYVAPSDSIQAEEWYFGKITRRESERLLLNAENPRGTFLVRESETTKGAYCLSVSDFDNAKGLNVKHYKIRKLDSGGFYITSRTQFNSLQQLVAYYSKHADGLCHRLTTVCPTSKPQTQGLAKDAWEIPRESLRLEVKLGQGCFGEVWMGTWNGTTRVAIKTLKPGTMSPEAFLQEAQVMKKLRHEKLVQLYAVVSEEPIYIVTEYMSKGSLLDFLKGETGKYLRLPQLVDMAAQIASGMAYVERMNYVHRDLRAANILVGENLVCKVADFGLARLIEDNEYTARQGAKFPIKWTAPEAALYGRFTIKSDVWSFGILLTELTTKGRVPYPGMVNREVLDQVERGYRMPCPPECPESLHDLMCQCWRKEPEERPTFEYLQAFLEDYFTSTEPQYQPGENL

With `ClC(Cn1ncc2c(Nc3cccc(Br)c3)nc(SCCN3CCOCC3)nc21)c1ccccc1` (stereo not shown) [Si306, N-(3-Bromophenyl)-1-(2-chloro-2-phenylethyl)-6-[(2-morpholin-4-ylethyl)thio]-1H-pyrazolo[3,4-d]pyrimidin-4-amine] the Ki ([1]; mean of at least two experiments, read-out: Enzymatic Data (Ki, μM) c-Src) was 0.13 µM, the Ki ([1]; read-out: Ki c-Src) was about 0.1 µM and the “reduction of tumor weight vs CTR” value ([2]; 50 mg/kg every other day for 30 days, alone) was “about 50%”. The “myofibroblast content (alpha-SMA expression) in tumor masses” value ([2]; immunohistochemistry of excised tumors) was “reduction of myofibroblast content”, the “Metabolic Stab. %” value ([3]; percentage of unmodified drug, Table 8) was 97.2% and the “Metabolic Stab.” value ([3]; percentage of unmodified parent drug, human liver microsomes 60 min) was 96%. The “number of colonies, combination with radiotherapy” value [4] was “reduced significantly the number of colonies”.
